Patent US20240401044A1, “EXPLOITING IL33 SECRETION AS A THERAPEUTIC TARGET IN CANCER” (ROSWELL PARK CANCER INSTITUTE CORPORATION HEALTH RESEARCH, …, priority 2021, published 2024)

Experiments:
[1] = tested on: IL33; assay: IHC and IF of IL33 in fungal-depleted PDAC tumors; type: in vivo, mouse; details: fungal-depleted tumors after amphotericin B course (FIG. 9H)
Protocol: To further test the role of fungi in IL33 secretion and recruitment of ILC2 and TH2 cells in the PDAC TME, we evaluated the effect of Alternaria and Malassezia administered by gavage to PDAC tumor-bearing mice (FIG. 9G). First, fungi resident in the mice were depleted by a course of amphotericin B (i.e., 5 doses of amphotericin B, 200 μg/day by oral gavage), followed by a maintenance dose of 0.5 μg/ml in the drinking water for […]. Following depletion of fungi, we administered either Malassezia globosa or Alternaria alternata (10^8 fungal spores per mouse) by oral gavage into the tumor-bearing mice. At 28 days post-fungal treatment, the tumors were harvested for analyses. […] Intratumoral fungal depletion and repopulation were confirmed by fungal FISH analysis (FIG. 9H). Further, 18S rRNA sequencing confirmed increased presence of Alternaria and Malassezia sp. in the tumor and stool of the mouse receiving fungal transplantation (FIG. 9I, FIG. 10D-F). […] Similarly, Malassezia globosa or Alternaria alternata administration augmented the infiltration of ILC2 (FIG. 9K) and TH2 (FIG. 10G) cell populations within the TME. […]
Harvested tissues were immediately fixed in 10% formalin overnight and embedded in paraffin. […] Immunofluorescence slides were imaged with an Leica confocal Microscope and quantified with ImageJ. […]

[2] = tested on: ILC2 and TH2 cells in PDAC tumors; assay: Flow cytometry of tumor infiltrating type 2 immune cells after antifungal treatment; type: in vivo, C57BL/6 mice; details: oral amphotericin B
Protocol: (§1) Followed by 3 weeks of amphotericin (0.5ug/ml) treatment in drinking water. After 3 weeks, PDAC cells were orthotopically transplanted and tumor progression studies were performed after 28-35 days. […] Red circles define the tumor boundaries. […] Followed by 3 weeks of amphotericin (0.5ug/ml) treatment in drinking water. After 3 weeks fungus (Alternaria alternata and Malassazia globose, 10^8 CFU/ml) was transplanted in mice. After 7 days of fungus transplantation, PDAC cells were orthotopically transplanted and tumor progression studies were performed after 28-35 days. […] Also, shown are the 18S rRNA sequencing in stool samples. Positive control-Alternaria is a sample of pure Alternaria culture. […] Scale bar 100 μm, unless indicated otherwise. Data are combined from three independent experiments and are presented as mean ±SEM, P values were calculated using Student t-test. ns, no significance.
For gastrointestinal fungal depletion, C57BL/6 mice were treated with 200 μg amphotericin B per day by oral gavage for five consecutive days, followed by 0.5 μg/ml amphotericin B treatment in drinking water for 21 days. Control groups were gavaged with 200 μl PBS for 5 consecutive days. After completion of antifungal treatment, species specific fungal repopulation was done with Alternaria alternata (ATCC 36376) and Malassezia globosa (MYA-4889). Fungi were administered (1×10^8 CFU/ml) by oral gavage. […]

[3] = tested on: orthotopically transplanted PDAC tumors; assay: Antifungal (fungal depletion) treatment of mice with orthotopically transplanted PDAC tumors: tumor burden and survival; type: in vivo, C57BL/6 mice
Protocol: as §1
For all experiments, C57BL/6J (Stock 000664) mice, aged 4-6 weeks were obtained from Jackson Laboratory unless otherwise mentioned. For orthotopic pancreas transplantation, mice were anaesthetized using isoflurane. A 2×2-mm portion of the left abdomen was shaved to facilitate transplantation. An incision was made in the left abdomen and the pancreas was gently exposed along with the spleen. Luciferase-expressing cells were slowly injected into the tail of the pancreas using a Hamilton syringe. Twenty microliters of cells (5×10^5) mixed with 20 μl Matrigel were injected. […]
Live in vivo imaging was performed at the Animal Imaging Facility at Roswell Park Comprehensive Cancer Center. […] Temperature and respiration were regulated using an MR-compatible small animal monitoring system (Model 1250, SAII, Stony Brook, NY.) Following scout scans, tumor burden was determined using multislice, fast spin echo scans in the axial and coronal planes. […] Tumor volumes were calculated by manual segmentation and voxel summation using commercially available, medical image processing software (Analyze 10.0, AnalyzeDirect, Overland Park, KS). […]

[4] = tested on: IL33 expression; assay: Western blot of IL33 expression in PDAC cell lines treated with MEK and PI3K/AKT inhibitors; type: cell-based, mouse; details: cell lines derived from KPC tumor model of PDAC; inhibitor treatment for 24 hrs
Protocol: Results are shown as mean ±SEM. P values were calculated using Student t test. Chi-square test and spearman's correlation analysis was done for human PDAC TMA for statistical significance.
The above in silico findings were further validated by western blot analysis showing a complete loss of IL33 expression upon abolishing Kras* signaling (FIG. 3F-G, FIG. 4A-B). We further validated this finding using cell lines derived from KPC tumor model of PDAC (FIG. 1A).
Primary mouse cell lines were established in the laboratory (PJ-B6-4291, PJ-B6-4298) or gift from Dr. Ronald DePinho (AK-B6, AK14838, AK192, HY19636, HY15559) as described previously and were routinely cultured in RPMI 1640 (Invitrogen) 10% FBS (Invitrogen), 100 U/ml penicillin and 100 U/ml streptomycin. For inducible Kras derived cell lines, 1 μg/ml of doxycycline was directly added to the media. The cell lines were mycoplasma free, based on tests done monthly in the laboratory using Lonza's MycoAlert Mycoplasma Detection Kit assays with confirmatory tests by PCR-based assays.
Medium was removed and the cells were washed twice in ice-cold phosphate-buffered saline (PBS), scraped and collected as pellets after centrifugation at 1700 g for 5 min. The pelleted cells were incubated in radio immune precipitation assay (RIPA) buffer with proteinase and phosphatase inhibitors for 15 min. Lysates were then collected and centrifuged at 12000 rpm for 15 min at 4° C. Protein concentrations were measured using the DC Protein Assay Kit (Biorad, Cat. No. 5000111). SDS-PAGE and immunoblotting were performed as described previously in pre-cast bis-Tris 4-20% gradient gels (Invitrogen). The following antibodies were used: IL33 (R & D system AF3626); pAKT-S473 (CST 9271); pERK-p44/42 (CST 4370) and […] (Sigma-Aldrich, A2228).

C[C@@H]1[C@H](O)[C@@H](C)/C=C/C=C/C=C/C=C/C=C/C=C/C=C/[C@H](O[C@@H]2O[C@H](C)[C@@H](O)[C@H](N)[C@@H]2O)C[C@@H]2O[C@](O)(C[C@@H](O)C[C@@H](O)[C@H](O)CC[C@@H](O)C[C@@H](O)CC(=O)O[C@H]1C)C[C@H](O)[C@H]2C(=O)O [amphotericin B]
IL33 localisation in PDAC tumors (IHC and IF) [1]: IL33 signal restricted predominantly to the nucleus of cancer cells
tumor infiltrating ILC2 ([2]; relative to total CD45 positive cells (FIG. 9E)): reduced tumor infiltrating ILC2
tumor infiltrating TH2 cells ([2]; relative to total CD45 positive cells (FIG. 9F)): reduced
tumor burden (wet weight of PDAC tumors) ([3]; fungal depletion/repopulation experiment, 5 doses 200 μg/day by oral gavage, then 0.5 μg/ml in drinking water (FIG. 9J)): significantly decreased tumor burden
tumor burden ([3]; oral amphotericin B, orthotopic PDAC tumor-bearing mice (FIG. 9B-C, 10A)): decreased tumor burden
survival ([3]; oral amphotericin B, orthotopic PDAC tumor-bearing mice (FIG. 9D)): increased survival

O=C(NOCC1CC1)c1ccc(F)c(F)c1Nc1ccc(I)cc1Cl [CI-1040]
IL33 expression (western blot) [4]: complete inhibition of IL33 expression

Nc1cc(C(F)(F)F)c(-c2cc(N3CCOCC3)nc(N3CCOCC3)n2)cn1 [Buparlisib]
IL33 expression (western blot) [4]: did not lead to a reduction in IL33 expression

CCn1c(-c2nonc2N)nc2c(C#CC(C)(C)O)ncc(OCC3CCCNC3)c21 (stereo not drawn) [GSK-690696]
IL33 expression (western blot) [4]: did not lead to a reduction in IL33 expression
